Source: patent US20100292266A1, “Oxazolyl Piperidine Modulators of Fatty Acid Amide Hydrolase” (priority 2006, published 2010)

Key:
[1] = target: T1, Rat FAAH (Rattus norvegicus, UniProt P97612); test: Assay Method 2: FAAH assay, 3H-anandamide hydrolysis in cell homogenate; type: biochemical; conditions: transfected SK-N-MC cell homogenate, 80 nM 3H-AEA, 1 h rt, > = solubility limit or highest concentration tested
T1 construct: expressed in transfected cells
T1 sequence (P97612 1-579): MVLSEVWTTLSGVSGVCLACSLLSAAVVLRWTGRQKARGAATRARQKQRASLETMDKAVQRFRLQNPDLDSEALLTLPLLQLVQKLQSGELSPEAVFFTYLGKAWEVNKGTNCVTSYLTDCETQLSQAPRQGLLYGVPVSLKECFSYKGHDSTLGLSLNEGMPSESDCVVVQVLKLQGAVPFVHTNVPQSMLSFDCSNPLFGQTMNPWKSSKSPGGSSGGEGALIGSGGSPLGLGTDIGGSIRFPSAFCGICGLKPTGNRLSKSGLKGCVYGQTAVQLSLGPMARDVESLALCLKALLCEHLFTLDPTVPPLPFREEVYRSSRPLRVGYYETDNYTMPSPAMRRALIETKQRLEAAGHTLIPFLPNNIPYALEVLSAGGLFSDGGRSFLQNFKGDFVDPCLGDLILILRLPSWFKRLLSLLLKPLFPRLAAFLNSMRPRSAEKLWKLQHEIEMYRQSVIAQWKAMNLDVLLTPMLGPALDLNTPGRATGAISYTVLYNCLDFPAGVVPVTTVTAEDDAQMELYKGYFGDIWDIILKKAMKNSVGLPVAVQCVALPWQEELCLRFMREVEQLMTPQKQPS
Protocol: A. Transfection of Cells with Rat FAAH
(§1) A 10-cm tissue culture dish with a confluent monolayer of SK-N-MC cells was split 2 days (d) prior to transfection. Using sterile technique, the media was removed and the cells were detached from the dish by the addition of trypsin. One fifth of the cells were then placed onto a new 10-cm dish. Cells were grown in a 37° C. incubator with 5% CO2 in Minimal Essential Media Eagle with 10% Fetal Bovine Serum. After 2 d, cells were approximately 80% confluent. These cells were removed from the dish with trypsin and pelleted in a clinical centrifuge. The pellet was re-suspended in 400 μL complete media and transferred to an electroporation cuvette with a 0.4 cm gap between the electrodes. Supercoiled rat FAAH cDNA (1 μg) was added to the cells and mixed. The voltage for the electroporation was set at 0.25 kV, and the capacitance was set at 960 μF. After electroporation, the cells were diluted into complete media (10 mL) and plated onto four 10-cm dishes. Because of the variability in the efficiency of electroporation, four different concentrations of cells were plated. The ratios used were 1:20, 1:10, and 1:5, with the remainder of the cells being added to the fourth dish. The cells were allowed to recover for 24 h before adding the selection media (complete media with 600 μg/mL G418). After 10 d, dishes were analyzed for surviving colonies of cells. Dishes with well-isolated colonies were used. Cells from individual colonies were isolated and tested.
(§2) The assay mixture consisted of 50 μL of the cell homogenate, 10 μL of the test compound, and 40 μL of anandamide [1-^3H-ethanolamine] (^3H-AEA, Perkin-Elmer, 10.3 Ci/mmol), which was added last, for a final tracer concentration of 80 nM. The reaction mixture was incubated at it for 1 h. During the incubation, 96-well Multiscreen filter plates (catalog number MAFCNOB50; Millipore, Bedford, Mass., USA) were loaded with 25 μL of activated charcoal (Multiscreen column loader, catalog number MACL09625, Millipore) and washed once with 100 μL of MeOH. Also during the incubation, 96-well DYNEX MicroLite plates (catalog number NL510410) were loaded with 100 μL of MicroScint40 (catalog number 6013641, Packard Bioscience, Meriden, Conn., USA). After the 1 h incubation, 60 μL of the reaction mixture were transferred to the charcoal plates, which were then assembled on top of the DYNEX plates using Centrifuge Alignment Frames (catalog number MACF09604, Millipore). The unbound labeled ethanolamine . was centrifuged through to the bottom plate (5 min at 2000 rpm), which was preloaded with the scintillant, as described above. The plates were sealed and left at rt for 1 h before counting on a Hewlett Packard TopCount.
(§3) Where activity is shown as greater than (>) a particular value, the value is the solubility limit of the compound in the assay medium or the highest concentration tested in the assay.

[2] = target: T2, FAAH (Homo sapiens, UniProt O00519); test: Assay Method 1: FAAH assay, 3H-anandamide hydrolysis in cell homogenate; type: biochemical; design: expressed in transfected cells; conditions: T84 or transfected SK-N-MC cell homogenate, 80 nM 3H-AEA, 1 h rt, > = solubility limit or highest concentration tested
T2 sequence (O00519 1-579): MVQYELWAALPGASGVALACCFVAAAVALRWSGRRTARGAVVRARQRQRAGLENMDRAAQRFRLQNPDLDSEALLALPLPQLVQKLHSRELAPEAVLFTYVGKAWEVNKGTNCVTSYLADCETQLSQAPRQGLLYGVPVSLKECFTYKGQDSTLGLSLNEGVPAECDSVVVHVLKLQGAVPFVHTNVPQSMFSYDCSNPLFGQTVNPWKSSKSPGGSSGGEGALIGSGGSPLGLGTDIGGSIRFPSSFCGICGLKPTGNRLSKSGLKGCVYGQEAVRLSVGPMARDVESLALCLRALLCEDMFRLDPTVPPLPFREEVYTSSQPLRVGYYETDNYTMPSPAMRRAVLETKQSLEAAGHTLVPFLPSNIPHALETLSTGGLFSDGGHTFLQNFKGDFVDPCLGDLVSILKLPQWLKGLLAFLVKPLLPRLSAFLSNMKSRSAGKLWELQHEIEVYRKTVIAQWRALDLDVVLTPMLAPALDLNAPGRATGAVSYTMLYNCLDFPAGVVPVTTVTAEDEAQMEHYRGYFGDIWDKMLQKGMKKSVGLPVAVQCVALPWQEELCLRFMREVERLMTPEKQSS
Protocol: A. Transfection of Cells with Human FAAH
as §1, with “Supercoiled human” for “Supercoiled rat”
as §2, with “at rt” for “at it”, “ethanolamine” for “ethanolamine .”
as §3

SMILES | IC50 [1] [nM] | IC50 [2] [nM]
O=C(c1ncco1)C1CCN(Cc2ccc3cccnc3n2)CC1 [Example 41, (1-[1,8]Naphthyridin-2-ylmethyl-piperidin-4-yl)-oxazol-2-yl-methanone] | 1750 | 309
O=C(c1ncco1)C1CCN(Cc2ccc3[nH]ccc3c2)CC1 [Example 42] | > 10000 | 519
COc1ccc(CN2CCC(C(=O)c3ncco3)CC2)cc1OC [Example 43, [1-(3,4-Dimethoxy-benzyl)-piperidin-4-yl]-oxazol-2-yl-methanone] | 6000 | 3000
O=C(c1ncco1)C1CCN(Cc2ccc(Cl)c(Cl)c2)CC1 [Example 44, [1-(3,4-Dichloro-benzyl)-piperidin-4-yl]-oxazol-2-yl-methanone] | 5 | 5
O=C(c1ncco1)C1CCN(Cc2ccc3cc[nH]c3c2)CC1 [Example 45, [1-(1H-Indol-6-ylmethyl)-piperidin-4-yl]-oxazol-2-yl-methanone] | 1600 | 212
COc1ccc2cc(CN3CCC(C(=O)c4ncco4)CC3)ccc2c1 [Example 46, [1-(6-Methoxy-naphthalen-2-ylmethyl)-piperidin-4-yl]-oxazol-2-yl-methanone] | 219 | 260
O=C(c1ncco1)C1CCN(Cc2ccc3ccccc3c2O)CC1 [Example 47, [1-(1-Hydroxy-naphthalen-2-ylmethyl)-piperidin-4-yl]-oxazol-2-yl-methanone] | 7 | 4
O=C(c1ncco1)C1CCN(Cc2cccc3ccccc23)CC1 [Example 48, (1-Naphthalen-1-ylmethyl-piperidin-4-yl)-oxazol-2-yl-methanone] | 63 | 101
Cn1c(CN2CCC(C(=O)c3ncco3)CC2)nc2ccccc21 [Example 49, [1-(1-Methyl-1H-benzoimidazol-2-ylmethyl)-piperidin-4-yl]-oxazol-2-yl-methanone] | 91 | 37
Cn1c(CN2CCC(C(=O)c3ncco3)CC2)cc2ccccc21 [Example 50, [1-(1-Methyl-1H-indol-2-ylmethyl)-piperidin-4-yl]-oxazol-2-yl-methanone] | 8 | 4
O=C(c1ncco1)C1CCN(Cc2ccc(Br)cc2)CC1 [Example 51, [1-(4-Bromo-benzyl)-piperidin-4-yl]-oxazol-2-yl-methanone] | 33 | 12
O=C(c1ncco1)C1CCN(Cc2cccc(Br)c2)CC1 [Example 52, [1-(3-Bromo-benzyl)-piperidin-4-yl]-oxazol-2-yl-methanone] | 200 | 35
O=C(c1ncco1)C1CCN(Cc2ccccc2Br)CC1 [Example 53, [1-(2-Bromo-benzyl)-piperidin-4-yl]-oxazol-2-yl-methanone] | 320 | 85
O=C(c1ncco1)C1CCN(Cc2cc3ccccc3s2)CC1 [Example 54, (1-Benzo[b]thoiphen-2-ylmethyl-piperidin-4-yl)-oxazol-2-yl-methanone] | 9 | 2
O=C(c1ncco1)C1CCN(Cc2cc3ccccc3o2)CC1 [Example 55, (1-Benzofuran-2-ylmethyl-piperidin-4-yl)-oxazol-2-yl-methanone] | 105 | 12
O=C(c1ncco1)C1CCN(Cc2cccc(Oc3ccccc3)c2)CC1 [Example 56, Oxazol-2-yl-[1-(3-phenoxy-benzyl)-piperidin-4-yl]-methanone] | 132 | 28
O=C(c1ncco1)C1CCN(Cc2ccc(Oc3ccccc3)cc2)CC1 [Example 57, Oxazol-2-yl-[1-(4-phenoxy-benzyl)-piperidin-4-yl]-methanone] | 532 | 210
O=C(c1ncco1)C1CCN(Cc2ccccn2)CC1 [Example 60, Oxazol-2-yl-(1-pyridin-2-ylmethyl-piperidin-4-yl)-methanone] | > 10000 | 1300
